# Results published in US11492345B2, “Compounds and their methods of use” (Praxis Precision Medicines, Inc., priority 2017, dated 2022).
# Target: T1, human Nav1.6 (hNav1.6) (Homo sapiens, UniProt Q9UQD0)
# T1 construct: expressed in transfected cells; host or cells: HEK-293 (G418 selection)
# Assay: Modulation of late sodium current (INaL), PatchXpress electrophysiology
# Type: cell-based
# Settings: HEK293; 1 μM compound; HEK-293 cells expressing recombinant human Nav channel; late current evoked by 300 nM ATX-II; steady-state inhibition; read-out: INaL v1.6 (1 μM, % Inhibition)
# Experimental: Functional characterization of exemplary compounds to modulate INaL expressed by the Nav1.6 voltage-gated sodium channel was accomplished using the PatchXpress™ high throughput electrophysiology platform (Molecular Devices, Sunnyvale, Calif.). HEK-293 cells expressing recombinant, human Nav1.6 (hNav1.6) were grown in DMEM/high-glucose Dulbecco's modified, 10% FBS, 2 mM sodium pyruvate, 10 mM HEPES and 400 μg/mL G418. Cells were grown to 50%-80% confluency prior to harvesting. Trypsinized cells were washed, allowed to recover for 1 hour and then resuspended in extracellular recording solution at a concentration of 1×10^6 cells/ml. The onboard liquid handling facility of the PatchXpress was used for dispensing cells and applying test compounds. Nav late currents were evoked by the application of 300 nM ATX-II. INaL was evoked by depolarizing pulses to 0 mV for 200 ms from a non-inactivating holding potential (e.g., −120 mV) at a frequency of 0.1 Hz. INaL amplitude and stability were determined by analyzing the mean current amplitude over the final 20 ms of the test pulse. […] Percent steady-state inhibition of INaL was calculated as: [(INaL_compound)/(INaL_control)]*100, where INaL_compound and INaL_control represent INaL recorded in the presence or absence of compound, respectively.
# T1 sequence (Q9UQD0 whole entry): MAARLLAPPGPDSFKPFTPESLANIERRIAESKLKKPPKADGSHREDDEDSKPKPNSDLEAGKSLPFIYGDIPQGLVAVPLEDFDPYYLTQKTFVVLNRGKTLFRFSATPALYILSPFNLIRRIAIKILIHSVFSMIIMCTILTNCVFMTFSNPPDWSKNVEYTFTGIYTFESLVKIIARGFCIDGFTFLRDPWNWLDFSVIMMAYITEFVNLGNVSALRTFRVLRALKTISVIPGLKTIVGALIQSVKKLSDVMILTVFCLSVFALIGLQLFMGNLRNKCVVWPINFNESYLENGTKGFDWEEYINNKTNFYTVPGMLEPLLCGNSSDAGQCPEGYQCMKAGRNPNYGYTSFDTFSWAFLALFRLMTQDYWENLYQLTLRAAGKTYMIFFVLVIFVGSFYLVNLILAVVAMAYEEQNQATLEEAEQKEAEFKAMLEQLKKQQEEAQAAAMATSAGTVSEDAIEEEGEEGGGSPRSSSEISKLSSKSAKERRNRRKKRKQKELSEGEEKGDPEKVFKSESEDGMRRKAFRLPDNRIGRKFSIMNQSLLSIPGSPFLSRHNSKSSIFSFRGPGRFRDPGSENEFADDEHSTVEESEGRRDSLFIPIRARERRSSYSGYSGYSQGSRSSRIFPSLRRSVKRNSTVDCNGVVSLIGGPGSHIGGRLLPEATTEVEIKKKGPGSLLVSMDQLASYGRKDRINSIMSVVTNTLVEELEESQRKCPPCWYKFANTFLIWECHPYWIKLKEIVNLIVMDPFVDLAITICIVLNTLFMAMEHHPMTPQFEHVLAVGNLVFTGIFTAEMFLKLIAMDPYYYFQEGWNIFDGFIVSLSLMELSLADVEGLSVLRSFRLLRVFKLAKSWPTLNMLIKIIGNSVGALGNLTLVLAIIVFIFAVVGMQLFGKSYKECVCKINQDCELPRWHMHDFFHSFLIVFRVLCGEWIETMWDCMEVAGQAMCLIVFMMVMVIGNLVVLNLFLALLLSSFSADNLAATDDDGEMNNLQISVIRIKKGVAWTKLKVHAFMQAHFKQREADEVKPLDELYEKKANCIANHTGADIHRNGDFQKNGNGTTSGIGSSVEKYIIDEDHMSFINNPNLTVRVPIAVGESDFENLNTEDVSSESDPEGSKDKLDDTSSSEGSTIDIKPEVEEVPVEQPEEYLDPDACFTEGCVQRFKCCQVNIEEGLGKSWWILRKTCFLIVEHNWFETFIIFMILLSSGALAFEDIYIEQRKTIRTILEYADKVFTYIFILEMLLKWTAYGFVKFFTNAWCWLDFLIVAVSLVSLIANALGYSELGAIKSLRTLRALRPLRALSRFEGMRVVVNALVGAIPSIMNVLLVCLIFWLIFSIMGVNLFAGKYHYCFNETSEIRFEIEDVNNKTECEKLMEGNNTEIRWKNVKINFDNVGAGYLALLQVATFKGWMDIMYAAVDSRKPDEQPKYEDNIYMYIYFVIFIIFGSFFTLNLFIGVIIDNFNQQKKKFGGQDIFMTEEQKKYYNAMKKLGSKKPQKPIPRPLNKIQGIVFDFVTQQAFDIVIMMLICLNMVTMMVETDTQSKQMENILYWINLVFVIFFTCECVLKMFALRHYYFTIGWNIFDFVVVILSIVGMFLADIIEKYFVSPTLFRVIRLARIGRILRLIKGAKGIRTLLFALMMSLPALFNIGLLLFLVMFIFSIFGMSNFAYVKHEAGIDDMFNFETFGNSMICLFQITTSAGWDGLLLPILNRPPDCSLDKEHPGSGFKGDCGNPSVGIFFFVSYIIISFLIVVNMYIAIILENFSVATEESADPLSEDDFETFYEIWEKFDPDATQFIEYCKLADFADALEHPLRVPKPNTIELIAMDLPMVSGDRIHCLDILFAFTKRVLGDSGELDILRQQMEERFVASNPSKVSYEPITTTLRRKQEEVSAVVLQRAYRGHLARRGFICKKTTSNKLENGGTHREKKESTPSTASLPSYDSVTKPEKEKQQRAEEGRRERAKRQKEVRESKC
row,Compound,inhibition at 1 µM [%]
1,O=c1oc2ccc(-c3ccc(OCC(F)(F)F)nc3)cc2n1CC(F)(F)F [Compound 6],30 to 70
2,O=c1oc2ccc(-c3ccc(OC(F)(F)F)cc3)nc2n1Cc1cncnc1 [Compound 103],> 70
3,Cn1nccc1Cn1c(=O)oc2ccc(-c3ccc(OC(F)(F)F)cc3)nc21 [Compound 158],30 to 70
4,"C[C@H](O)CCn1c(=O)oc2ccc(-c3ccc(OC(F)(F)F)cc3)nc21 (single isomer, unassigned) [Compound 99]",> 70
5,O=C(Cn1c(=O)oc2ccc(-c3cnc(OCC(F)(F)F)c(F)c3)nc21)N1CCCC1 [Compound 137],< 30
6,O=c1oc2ccc(-c3ccc(OC(F)(F)F)cc3)nc2n1CC1CCOCC1 [Compound 101],> 70
7,Cn1cc(Cn2c(=O)oc3ccc(-c4ccc(OC(F)(F)F)cc4)nc32)cn1 [Compound 151],> 70
8,O=c1oc2ccc(-c3ccc(OC(F)(F)F)cc3)nc2n1Cc1ccncn1 [Compound 141],30 to 70
9,Cn1ncnc1Cn1c(=O)oc2ccc(-c3ccc(OC(F)(F)F)cc3)nc21 [Compound 164],30 to 70
10,CC(O)CCn1c(=O)oc2ccc(-c3ccc(OC(F)(F)F)cc3)nc21 (stereo not shown) [Compound 89],> 70
11,O=c1oc2ccc(-c3cnc(OCC(F)(F)F)c(F)c3)nc2n1CCc1ncccn1 [Compound 122],< 30
12,[2H]C([2H])([2H])C([2H])([2H])n1c(=O)oc2ccc(-c3ccc(OC(F)(F)F)cc3)nc21 [Compound 91],30 to 70
13,"C[C@H](Cn1c(=O)oc2ccc(-c3ccc(OC(F)(F)F)cc3)nc21)c1ncccn1 (single isomer, unassigned) [Compound 149]",> 70
14,COCc1cc(OC(F)(F)F)ccc1-c1ccc2oc(=O)n(CC(F)(F)F)c2c1 [Compound 7],> 70
15,O=c1[nH]c2cc(-c3ccc(OC(F)(F)F)cc3)cnc2o1 [Compound 37],30 to 70
16,Cc1nnc(Cn2c(=O)oc3ccc(-c4ccc(OC(F)(F)F)cc4)nc32)o1 [Compound 153],30 to 70

row,Compound,inhibition at 1 µM [%]
1,"O=c1[nH]c2nc(-c3ccc(OC(F)(F)F)cc3)ccc2o1 [Compound 29, 5-[4-(trifluoromethoxy)phenyl]-3H-oxazolo[4,5-b]pyridin-2-one]",< 30
2,Cc1noc(C)c1Cn1c(=O)oc2ccc(-c3ccc(OC(F)(F)F)cc3)nc21 [Compound 152],< 30
3,O=c1oc2ccc(-c3ccc(OC(F)(F)F)cc3)nc2n1CCc1ncccn1 [Compound 87],30 to 70
4,Cn1c(=O)oc2ccc(-c3ccc(OC(F)(F)F)cc3)nc21 [Compound 75],> 70
5,"O=c1[nH]c2cc(-c3ccc(OC(F)(F)F)cc3)ccc2o1 [Compound 5, 5-[4-(trifluoromethoxy)phenyl]-3H-1,3-benzoxazol-2-one]",> 70
6,O=c1oc2ccc(-c3ccc(OC(F)(F)F)cc3)nc2n1CCc1ccncn1 [Compound 146],> 70
7,O=c1oc2ncc(-c3ccc(OC(F)(F)F)cc3)cc2n1CCc1ncccn1 [Compound 92],< 30
8,O=c1oc2ccc(-c3ccc(OC(F)(F)F)cc3)nc2n1CCc1cnccn1 [Compound 123],> 70
9,Cc1nnc(Cn2c(=O)oc3ccc(-c4ccc(OC(F)(F)F)cc4)nc32)s1 [Compound 155],> 70
10,CC(C)n1c(=O)oc2ccc(-c3ccc(OC(F)(F)F)cc3)nc21 [Compound 78],> 70
11,[2H]C([2H])([2H])n1c(=O)oc2ccc(-c3ccc(OC(F)(F)F)cc3)nc21 [Compound 93],> 70
12,Cc1cc(Cn2c(=O)oc3ccc(-c4ccc(OC(F)(F)F)cc4)nc32)no1 [Compound 156],> 70
13,"O=c1oc2ccc(-c3ccc(OC(F)(F)F)cc3)nc2n1C[C@@H]1CC1(F)F (single isomer, unassigned) [Compound 107]",30 to 70
14,Cc1n[nH]cc1Cn1c(=O)oc2ccc(-c3ccc(OC(F)(F)F)cc3)nc21 [Compound 167],< 30
15,O=c1[nH]c2cc(-c3ccc(OCC(F)(F)F)nc3)ccc2o1 [Compound 20],30 to 70

# Now from value to compound:
row,inhibition at 1 µM [%],Compound
1,30 to 70,"O=c1oc2ccc(-c3ccc(OC(F)(F)F)cc3)cc2n1C[C@H]1CCOC1 (single isomer, unassigned) [Compound 70]"
2,> 70,Cc1nnc(CCn2c(=O)oc3ccc(-c4ccc(OC(F)(F)F)cc4)cc32)o1 [Compound 3]
3,30 to 70,"COC[C@H]1CCN(C(=O)Cn2c(=O)oc3ccc(-c4ccc(OC(F)(F)F)cc4)cc32)C1 (single isomer, unassigned) [Compound 139]"
4,30 to 70,CN(CC(F)(F)F)C(=O)Cn1c(=O)oc2ccc(-c3ccc(OC(F)(F)F)cc3)cc21 [Compound 80]
5,< 30,COCCCn1c(=O)oc2ccc(-c3ccc(OC(F)(F)F)cc3)cc21 [Compound 15]
6,< 30,O=C(Cn1c(=O)oc2ccc(-c3ccc(OC(F)F)cc3)cc21)N1CCCC1 [Compound 148]
7,> 70,O=c1oc2ccc(-c3ccc(OC(F)(F)F)cc3)cc2n1CC1CCOC1 (stereo not shown) [Compound 68]
8,< 30,O=C(Cn1c(=O)oc2ccc(-c3ccc(OC(F)(F)F)cc3)cc21)N1CC[C@H](O)C1 [Compound 115]
9,> 70,O=C(Cn1c(=O)oc2ccc(-c3ccc(OC(F)(F)F)cc3)nc21)N1CCCCC1 [Compound 119]
10,> 70,O=c1oc2ccc(-c3ccc(OC(F)(F)F)cc3)cc2n1CCC1CC1 [Compound 19]
11,> 70,"O=c1oc2ccc(-c3ccc(OC(F)(F)F)cc3)nc2n1C[C@H]1CCOC1 (single isomer, unassigned) [Compound 62]"
12,< 30,CO[C@H]1CCN(C(=O)Cn2c(=O)oc3ccc(-c4ccc(OC(F)(F)F)cc4)cc32)C1 [Compound 125]
13,> 70,CC(=O)N1CCC[C@@H]1Cn1c(=O)oc2ccc(-c3ccc(OC(F)(F)F)cc3)cc21 [Compound 109]
14,< 30,NC(=O)Cn1c(=O)oc2ccc(-c3ccc(OC(F)(F)F)cc3)cc21 [Compound 42]
15,< 30,CS(=O)(=O)N1CCC[C@@H]1Cn1c(=O)oc2ccc(-c3ccc(OC(F)(F)F)cc3)cc21 [Compound 118]
16,> 70,Cn1c(=O)oc2ccc(-c3ccc(OC(F)(F)F)cc3)cc21 [Compound 10]
17,30 to 70,O=C(Cn1c(=O)oc2ccc(-c3ccc(OC(F)(F)F)cc3)cc21)N1CCOCC1 [Compound 40]
18,30 to 70,C[C@H](O)CCn1c(=O)oc2ccc(-c3ccc(OC(F)(F)F)cc3)cc21 [Compound 98]

row,inhibition at 1 µM [%],Compound
1,30 to 70,O=C1OCCN1CCCn1c(=O)oc2ccc(-c3ccc(OC(F)(F)F)cc3)cc21 [Compound 31]
2,> 70,O=c1oc2ccc(-c3ccc(OC(F)(F)F)cc3)cc2n1C[C@@H]1CCCO1 [Compound 104]
3,< 30,O=C(Cn1c(=O)oc2ccc(-c3ccc(OC(F)(F)F)cc3)cc21)N1CC[C@@H](O)C1 [Compound 114]
4,> 70,O=c1oc2ccc(-c3ccc(OC(F)(F)F)cc3)cc2n1CC1CCCCO1 (stereo not shown) [Compound 57]
5,> 70,CCN(CC)C(=O)CCn1c(=O)oc2ccc(-c3ccc(OC(F)(F)F)cc3)cc21 [Compound 28]
6,> 70,C[C@@H]1CCCN1C(=O)Cn1c(=O)oc2ccc(-c3ccc(OC(F)(F)F)cc3)nc21 [Compound 134]
7,> 70,"O=c1oc2ccc(-c3ccc(OC(F)(F)F)cc3)nc2n1C[C@@H]1CCCOC1 (single isomer, unassigned) [Compound 67]"
8,30 to 70,CC(=O)N1CCC[C@H]1Cn1c(=O)oc2ccc(-c3ccc(OC(F)(F)F)cc3)cc21 [Compound 111]
9,> 70,O=c1oc2ccc(-c3ccc(OC(F)(F)F)cc3)cc2n1Cc1cnccn1 [Compound 131]
10,> 70,"O=c1oc2ccc(-c3ccc(OC(F)(F)F)cc3)cc2n1C[C@@H]1CCOC1 (single isomer, unassigned) [Compound 69]"
11,> 70,"O=c1oc2ccc(-c3ccc(OC(F)(F)F)cc3)nc2n1C[C@@H]1CCOC1 (single isomer, unassigned) [Compound 61]"
12,30 to 70,O=c1oc2ccc(-c3ccc(OC(F)(F)F)cc3)cc2n1Cc1ncccn1 [Compound 50]
13,30 to 70,CS(=O)(=O)N1CCC[C@H]1Cn1c(=O)oc2ccc(-c3ccc(OC(F)(F)F)cc3)cc21 [Compound 113]
14,30 to 70,O=C(Cn1c(=O)oc2ccc(-c3ccc(OC(F)(F)F)cc3)nc21)N1CCCC1 [Compound 79]
15,> 70,O=c1oc2ccc(-c3ccc(OC(F)(F)F)cc3)cc2n1CCc1ccncn1 [Compound 147]
16,> 70,"O=c1oc2ccc(-c3ccc(OC(F)(F)F)cc3)nc2n1C[C@H]1CCCOC1 (single isomer, unassigned) [Compound 66]"
17,< 30,O=C(O)CCn1c(=O)oc2ccc(-c3ccc(OC(F)(F)F)cc3)cc21 [Compound 24]
18,> 70,O=c1oc2ccc(-c3ccc(OC(F)(F)F)cc3)cc2n1C[C@H]1CCCO1 [Compound 105]
